Results from article PMC10102027, “Helquat dyes targeting G-quadruplexes as a new class of anti-HIV-1 inhibitors” (Scientific Reports, 2023).

Experiments:
Assay type in all cases: cell-based
in vitro = conditions: human
Description: (§1) Based on a facile [2 + 2 + 2]‐cycloisomerization strategy, a robust three‐step synthetic entry into a novel family of helical extended diquats (helquats) was developed. After a straightforward Knoevenagel condensation of the respective helquat parent with different aldehydes (Fig. 2A), more than 500 helquat-based compounds were synthesized and screened for anti-HIV-1 activity in an assay based on the inhibition of the virus-induced cytopathic effect in MT-4 cells, evaluated after 5 days post-infection by an XTT assay. In parallel with the screening, the XTT assay was also used to determine the cytotoxicity of all compounds (Fig. 2B; for more information on the synthesis and characterization of the compounds, see the Supplementary Information). […]
(§2) XTT screening. MT-4 cells were seeded in 80 µl of the RPMI without Phenol Red in the amount of 3x10^4 cells per well of a 96-well plate. 10 µl of tested compounds (500 µM at 5% DMSO) or controls (5% DMSO at PBS, AZT 1mM, SQV 100 µM) were added to the cells; after one-hour incubation at 37 °C, HIV-1 (NL4-3 strain) was added with MOI = 0.05 and the infected cells were cultivated for five days.
(§3) The viability of the cells was measured by the XTT cell viability and proliferation assay. Briefly, 50 µl of the XTT solution with the addition of PMS (both VWR) was added to the cultivation media and incubated in a humidified incubator maintained at 37 °C with 5% CO2 for four hours, after which absorbance at 560 nm was measured on a VICTOR plate reader (PerkinElmer).
The cytotoxicity of the tested compounds was evaluated separately without virus addition and analysed by the same assay.
(§4) For compounds selected as hits in the initial screening, the effective concentration that inhibits 50% of the viral activity (EC50) and the cytotoxic concentration that reduces the MT -4 cell viability by 50% (CC50) were determined. Viral activity was evaluated after five days as an HIV-1-induced cytopathic effect quantified by the XTT assay. Selected hits were tested at two-fold serial dilutions from 50 µM concentration, and the drug concentrations required to reduce the viral cytopathic effect by 50% (EC 50) as well as the drug concentrations that reduced MT-4 cell viability by 50% (CC50) were calculated by nonlinear regression using GraphPad Prism v.8.0.0 (GraphPad Software).

HIV-1 [1] = experiment: Adsorption assay (RT activity in supernatant); conditions: 10 µM, compound and virions added to MT-4 cells simultaneously, washed out after 2 h, RT activity 5 days after infection
Method: (§5) To address virion binding and entry in a competitive setting, we performed an adsorption assay where test compounds and virions were added to MT-4 cells simultaneously and were washed out after 2 h of incubation. In parallel, we performed a replication assay where MT-4 cells were infected with HIV-1 and the tested compounds were added 1 h later. In both cases, the infection was evaluated by measuring reverse transcriptase activity in a cell-free supernatant 5 days after the infection (Fig. 3). As controls, PBS (phosphate-buffered saline) and inhibitors of different HIV-1 life-cycle steps were used: AMD (AMD3100), an inhibitor of gp120 attachment to CXCR4 receptors of the target cell, thus preventing HIV-1 adsorption and entry; AZT (azidothymidine), an inhibitor of reverse transcriptase; and RAL (raltegravir), an integrase inhibitor.
(§6) MT-4 cells were seeded in 80 µl of the Roswell Park Memorial Institute (RPMI) medium in the amount of 2 × 10^5 cells per well of a 96-well plate, and 10 µl of the virus stock were immediately added with the final multiplicity of infection (MOI) of 0.05. For a replication assay, the infected cells were incubated at 37 °C for 1 h before the addition of compounds being tested (10 µM final concentration) and subsequently cultivated at 37 °C for another 5 days. For an adsorption test, by contrast, the compounds (10 µM final concentration) were added simultaneously with the virus, and after 2 h of incubation, the cells were washed three times with PBS to remove the compounds and unbound virions; after the addition of 100 µl of the RPMI medium, the cells were cultivated at 37 °C for 5 days. Five days post-infection, aliquots of virus-containing cell-free supernatants were harvested and analysed by reverse transcriptase (RT) assay (described in the Supplementary Information). The experiments were performed as biological replicates where the sample size for each condition was n = 3.
(§7) RT assay. The reverse transcriptase (RT) activity in a cell-free supernatant was assessed by an α-32P RT assay. Briefly, the RT activity in the culture medium, which corresponded to the amount of HIV-1, was used to produce a DNA copy of an RNA template by extending a complementary oligo dT DNA primer with radiolabelled nucleotides. A reaction mixture containing 50 mM Tris-HCl pH 7.8, 75 mM KCl, 2 mM DTT, 5 mM MgCl2 and 0.5% NP-40 (all Sigma-Aldrich), 5 µg per ml of poly (rA)-poly (dT) (The Midlan Certified Reagent Company) with 1 µl 10-mCi/ml [α-32P]dTTP (American Radiolabeled Chemicals) per ml, and the tested sample was incubated at 37°C for two hours, after which 10 µl were spotted on DEAE blotting paper (PerkinElmer) and air-dried. After five washes with SSC buffer (0.15 M NaCl, 0.015 M sodium citrate) and three additional washes with 85% ethanol, the blotting paper was exposed to Phosphoscreen overnight, which was scanned on a Typhoon 9410 Phosphorimager instrument (GE Healthcare). The intensity of the dots was analysed by the ImageQuant software (GE Healthcare).

HIV-1 [2] = experiment: Replication assay (RT activity in supernatant); conditions: 10 µM, compound added 1 h after infection of MT-4 cells, RT activity 5 days after infection
Method: as §5, §6, §7

HIV-1 (NL4-3 strain) = experiment: CPE-based antiviral assay in HIV-1-infected MT-4 cells (XTT); conditions: Human immunodeficiency virus 1, NL43, MT4, 120 h, cytopathic effect-based assay, MT-4 cells infected by HIV-1 (NL4-3 strain), 5 days post-infection
Description: as §1, §2
as §3, with “(PerkinElmer). […]” for “(PerkinElmer).”
as §4

Compound | CC50 at 5 days (in vitro) | effect on virus adsorption (HIV-1 [1]) | effect on viral replication (HIV-1 [2]) | EC50 (HIV-1 (NL4-3 strain))
Cc1c(C)c2c(c3c1CC[n+]1ccc(/C=C/c4c5ccccc5c(C)c5ccccc45)cc1-3)-c1cc(/C=C/c3c4ccccc4c(C)c4ccccc34)cc[n+]1CC2 [Compound 1] | > 50 µM | inhibited neither adsorption nor replication, or their effect was weak | inhibited neither adsorption nor replication, or their effect was weak | < 1 µM
CN1/C(=C/c2cc3[n+](c4ccccc24)CCCc2ccc4c(c2-3)-c2cccc[n+]2CCC4)Sc2ccccc21 [Compound 2] | 24.4 µM | inhibited adsorption |  | < 1 µM
C(=C\c1cccc2[n+]1CCc1ccc3c(c1-2)-c1cccc(/C=C/c2ccc(C(=C(c4ccccc4)c4ccccc4)c4ccccc4)cc2)[n+]1CC3)/c1ccc(C(=C(c2ccccc2)c2ccccc2)c2ccccc2)cc1 [Compound 4] | > 50 µM | inhibited adsorption |  | 1.51 µM
Cc1c(C)c2c(c3c1CC[n+]1ccc(/C=C/c4ccc5c(c4)CCO5)cc1-3)-c1cc(/C=C/c3ccc4c(c3)CCO4)cc[n+]1CC2 [Compound 5] | > 50 µM | inhibited neither adsorption nor replication, or their effect was weak | inhibited neither adsorption nor replication, or their effect was weak | 1.67 µM
C(=C\c1cc2ccccc2[nH]1)/c1cc[n+]2c(c1)-c1c(ccc3c1-c1cccc[n+]1CCC3)CCC2 [Compound 7] | > 50 µM | minimal or no effect on virus adsorption | significantly impairing viral replication | 1.79 µM
Cc1c(C)c2c(c3c1CC[n+]1ccc(/C=C/c4ccc(N(C)C)cc4)cc1-3)-c1cc(/C=C/c3ccc(N(C)C)cc3)cc[n+]1CC2 [Compound 8] | > 50 µM | inhibited adsorption |  | 1.79 µM
Cn1c(/C=C/c2cccc3[n+]2CCc2ccc4c(c2-3)-c2cccc(/C=C/c3cc5ccccc5n3C)[n+]2CC4)cc2ccccc21 [Compound 9] | > 50 µM | inhibited adsorption |  | 1.96 µM
CN1/C(=C/c2cccc3[n+]2CCCc2ccc4c(c2-3)-c2cccc(/C=C3\Sc5ccccc5N3C)[n+]2CCC4)Sc2ccccc21 [Compound 10] | > 50 µM | inhibited neither adsorption nor replication, or their effect was weak | inhibited neither adsorption nor replication, or their effect was weak | 2.18 µM
Cc1c(C)c2c(c3c1CC[n+]1ccc(/C=C/c4ccc(-c5ccccc5)s4)cc1-3)-c1cc(/C=C/c3ccc(-c4ccccc4)s3)cc[n+]1CC2 [Compound 11] | > 50 µM | inhibited adsorption |  | 2.64 µM
COc1ccc(/C=C/c2cc[n+]3c(c2)-c2c(c(C)c(C)c4c2-c2cc(/C=C/c5ccc(OC)cc5OC)cc[n+]2CC4)CC3)c(OC)c1 [Compound 13] | > 50 µM | inhibited neither adsorption nor replication, or their effect was weak | inhibited neither adsorption nor replication, or their effect was weak | 2.69 µM
Cc1c(C)c2c(c3c1CC[n+]1ccc(/C=C/c4c[nH]c5ccc(Br)cc45)cc1-3)-c1cc(/C=C/c3c[nH]c4ccc(Br)cc34)cc[n+]1CC2 [Compound 17] | > 50 µM | inhibited neither adsorption nor replication, or their effect was weak | inhibited neither adsorption nor replication, or their effect was weak | 3.01 µM
Cc1c(C)c2c(c3c1CC[n+]1ccc(/C=C/c4c[nH]c5ccccc45)cc1-3)-c1cc(/C=C/c3c[nH]c4ccccc34)cc[n+]1CC2 [Compound 18] | > 50 µM | inhibited neither adsorption nor replication, or their effect was weak | inhibited neither adsorption nor replication, or their effect was weak | 3.18 µM
COc1ccc(/C=C/c2cc[n+]3c(c2)-c2c(c(C)c(C)c4c2-c2cc(/C=C/c5ccc(OC)c6ccccc56)cc[n+]2CC4)CC3)c2ccccc12 [Compound 19] | > 50 µM | inhibited neither adsorption nor replication, or their effect was weak | inhibited neither adsorption nor replication, or their effect was weak | 3.39 µM
